Test results from article PMC10534486 (Pharmaceutics, 2023).
Where two headings read alike, the source gives them in different places.

Legend:
[1] = in vitro; type: in vitro ADME, rat
Protocol: […]. […] […].
The binding percentage (%) was calculated using the equation: Binding percentage %=CT−CF/CT×100 where CF represents the concentration of free drug measured in the ultrafiltrate and CT is the total drug concentration introduced into the ultrafiltration system before centrifugation.

[2] = Pharmacokinetics after oral administration of 20 mg/kg to CON and PHL rats; type: in vivo, Sprague–Dawley rats; conditions: for AUC(0-inf) / Cmax / CL renal / half-life / k el / bioavailability: po, 20 mg/kg; for CL renal: read-out: CLR (time-averaged renal clearance); for half-life: read-out: Terminal half-life; for k el: read-out: k (elimination rate constant) (converted); for bioavailability: read-out: F (absolute oral bioavailability)
Protocol: The rats were randomly assigned to one of two experimental groups: a control (CON) and a P-407-induced hyperlipidemia (PHL) group. P-407 was dissolved in cold sterile 0.9% NaCl-injectable solution and stored in a refrigerator for at least 6 h to ensure complete dissolution. Rats in the PHL group received a single intraperitoneal injection of 1 g/kg P-407, whereas rats in the CON group received a single intraperitoneal injection of an equal volume of 0.9% NaCl. Hyperlipidemia was defined as a total cholesterol concentration higher than 220 mg/dL or a low-density lipoprotein (LDL) cholesterol concentration higher than 160 mg/dL [29, 30].
Rats were anesthetized with ketamine (100 mg/kg) prior to surgical procedures. […] Prior to oral investigation, the rats were fasted overnight and only the carotid artery was cannulated for blood collection. The rats were allowed to recover for 3–4 h after surgical procedures prior to the performance of subsequent experiments.
. Blood samples (0.12 mL) were obtained at 0 (prior to drug administration), 1, 5, 15, 30, 45, 60, 90, 120, 180, and 240 min through the carotid artery. […]. Blood samples (0.12 mL) were collected through the carotid artery at 0 (prior to drug administration), 5, 15, 30, 45, 60, 90, 120, 180, 240, 360, and 480 min. All blood samples were centrifuged for 1 min at 8000× g and plasma (50 μL) samples were collected. After the blood samples were obtained, 0.3 mL of heparinized 0.9% NaCl solution (20 IU/mL) was immediately injected into the carotid artery to prevent blood clotting.
At 24 h, the rats were sacrificed and the abdomen of each was opened. The entire gastrointestinal tract of each rat was excised, cut into small pieces, and immersed in a beaker containing 50 mL of methanol. After evenly mixing the contents in the beaker, a 50 μL aliquot of each supernatant was withdrawn. The volumes of urine samples collected for 24 h after drug administration were measured and two 100 μL aliquots of each were collected.
The following pharmacokinetic parameters were determined by non-compartmental analysis (WinNonlin, Pharsight Co., Mountain View, CA, USA) using standard methods: terminal half-life, time-averaged total body (CL), renal (CLR), and nonrenal (CLNR) clearances, apparent volume of distribution at steady state (Vss), area under the plasma concentration–time curve from zero to infinity (AUC0–∞), and elimination rate constant (k). AUC0–∞ was calculated using the trapezoidal rule extrapolation method, whereas the maximum plasma concentration (Cmax) and time required to reach Cmax (Tmax) were determined directly from the plasma concentration–time curves. (R3-3) The absorption rate constants (ka) for oral administration were also estimated under the assumption of one-compartment model and first-order elimination.

[3] = Distribution of tofacitinib in tissues 30 min after intravenous administration; type: in vivo; conditions: Sprague-Dawley, rat; all tissues of CON and PHL rats, 30 min after intravenous 10 mg/kg; read-out: Tissue-to-plasma (T/P) ratios
Protocol: . Tissue samples, including fat, brain, kidney, heart, liver, large intestine, mesentery, lung, small intestine, muscle, stomach, and spleen, were removed from each rat, rinsed in phosphate-buffered saline (PBS, pH 7.4), and blotted dry with paper towels to remove any remaining blood. Approximately 1 g of each tissue was added to 4 volumes of homogenizing buffer, followed by homogenization (IKA Labortechnik, Staufen, Germany) and centrifugation at 8000× g for 10 min.

[4] = for CLR estimated from the free fraction in plasma: intravenous
[5] = cited from earlier work
[6] = tested on: P-gp; design: method as in PMID 24704892; conditions: cited from earlier work
[7] = in vivo; conditions: Sprague-Dawley, rat, plasma, iv, 10 mg/kg; for clearance: CL (time-averaged total body clearance); for CL renal: CLR (time-averaged renal clearance); for MRT: MRT (mean residence time); for half-life: Terminal half-life; for Vd: Vss (apparent volume of distribution at steady state); for k el: k (elimination rate constant)
[8] = Vmax, Km and CLint for disappearance of tofacitinib in hepatic microsomes
[9] = Vmax, Km and CLint for disappearance of tofacitinib in intestinal microsomes
[10] = Sprague-Dawley, rat, plasma, CON rats (n = 6)
[11] = Sprague-Dawley, rat, plasma, PHL rats (n = 7)
[12] = oral 20 mg/kg, CON rats (n = 6)
[13] = oral 20 mg/kg, PHL rats (n = 7)

recovery at 30 min, 5 µg/mL ([1]; pH 7.4): 100 ± 2.84% | Free (unbound to plasma proteins) fraction in plasma ([1]; rat, plasma, 30 min, 5 µg/mL): 40.8% | fraction unbound at 30 min, 5 µg/mL ([1]; rat, plasma, Free (unbound to plasma proteins) fraction in plasma): 0.667 | fraction unbound at 30 min, 5 µg/mL ([1]; rat, plasma, Plasma protein binding): 0.408 | AUC(0-inf) [2, 10]: 4800 ng·h/mL | Cmax [2, 10]: 2960 ± 643 ng/mL | CL renal [2, 10]: 3.52 ± 1.8 mL/min/kg | half-life [2, 10]: 62.1 ± 16.7 min | k el [2, 10]: 0.000197 s⁻¹ | bioavailability ([2]; Sprague-Dawley, rat, plasma, CON rats): 53.7% | AUC(0-inf) [2, 11]: 7950 ng·h/mL | Cmax [2, 11]: 4750 ± 1180 ng/mL | CL renal [2, 11]: 1.28 ± 0.786 mL/min/kg | half-life [2, 11]: 84.3 ± 21.2 min | k el [2, 11]: 0.000145 s⁻¹ | bioavailability ([2]; Sprague-Dawley, rat, plasma, PHL rats): 51.4% | Tmax ([2]; Sprague-Dawley, rat, plasma, oral 20 mg/kg, PHL rats (n = 7)): 30 min | AUC0–∞ higher in PHL than in CON rats ([2]; oral 20 mg/kg): 65.6% | CLR lower in PHL than in CON rats ([2]; oral 20 mg/kg): 63.6% | Cmax higher in PHL than in CON rats ([2]; oral 20 mg/kg): 60.5% | Ae0–24 h (drug excreted unchanged in urine for 24 h) [2, 12]: 4.90 ± 1.95 % of dose | ka (absorption rate constant) [2, 12]: 0.127 ± 0.0389 min⁻¹ | Ae0–24 h (drug excreted unchanged in urine for 24 h) [2, 13]: 3.02 ± 1.87 % of dose | ka (absorption rate constant) [2, 13]: 0.156 ± 0.0885 min⁻¹ | Time after dosing at which drug was detected in plasma ([2]; oral 20 mg/kg, all CON and PHL rats): 5 min | Kp at 30 min [3]: < 1 | AUC0–∞ higher in PHL than in CON rats ([4]; intravenous 10 mg/kg): 73.5% | CL slower in PHL than in CON rats ([4]; intravenous 10 mg/kg): 43.0% | Ae0–24 h (drug excreted unchanged in urine for 24 h) ([4]; intravenous 10 mg/kg, CON rats (n = 7)): 4.06 ± 1.89 % of dose | Ae0–24 h (drug excreted unchanged in urine for 24 h) ([4]; intravenous 10 mg/kg, PHL rats (n = 6)): 5.76 ± 2.53 % of dose | CLR estimated from the free fraction in plasma ([4]; CON rats): 4.66 mL/min/kg | CLR estimated from the free fraction in plasma ([4]; PHL rats): 6.05 mL/min/kg | AUC(0-inf) ([7]; AUC (AUC0–∞), CON rats (n = 7)): 4470 ng·h/mL | clearance ([7]; CON rats (n = 7)): 37.9 ± 4.85 mL/min/kg | clearance ([7]; PHL rats (n = 6)): 21.6 ± 1.13 mL/min/kg | CL renal ([7]; CON rats (n = 7)): 3.11 ± 1.58 mL/min/kg | CL renal ([7]; PHL rats (n = 6)): 2.47 ± 1.1 mL/min/kg | MRT ([7]; CON rats (n = 7)): 22.6 min | MRT ([7]; PHL rats (n = 6)): 22.7 min | half-life ([7]; CON rats (n = 7)): 29.6 ± 4.55 min | half-life ([7]; PHL rats (n = 6)): 34.5 ± 2.29 min | Vd ([7]; CON rats (n = 7)): 0.847 ± 0.191 L/kg | Vd ([7]; PHL rats (n = 6)): 0.49 ± 0.136 L/kg | k el ([7]; CON rats (n = 7)): 0.000398 s⁻¹ | k el ([7]; PHL rats (n = 6)): 0.000337 s⁻¹ | CLint lower in PHL than in CON rats [8]: 36.9% | Km, PHL versus CON rats [8]: did not differ significantly | CLint lower in PHL than in CON rats [9]: 51.3% | Km, PHL versus CON rats [9]: comparable
SMILES: C[C@@H]1CCN(C(=O)CC#N)C[C@@H]1N(C)c1ncnc2[nH]ccc12 [tofacitinib, Tofacitinib]
Terminal half-life [5]: approximately 3.3 h | P-gp substrate status [6]: substrate of P-gp
